Data: patent US12139505B2, “Compositions useful in therapy of autophagy-related pathologies, and methods of making and using the same” (The University of Toledo, priority 2017, dated 2024)
“Also recorded” adds a separate entry of the source.

How the values were obtained:
RG2 glioma cells = experiment: Autophagic flux assay (LC3-II western blot in the presence of bafilomycin-A1); format: cell-based, rat
Protocol: In the assay, cells are treated with subtoxic concentrations of bafilomycin-A, which blocks lysosomal acidification. This prevents autophagosome fusion with lysosomes at a specific point. For example, RG2 glioma cells (or other cell types) are “clamped” by addition of 10-50 nM bafilomycin-A1 to block autophagosome fusion with lysosomes and eliminate autophagy clearance. Then, autophagy flux is measured by the conjugation of phosphatidylethanolamine to LC3-I, yielding an electrophoretically separable LC3-II by western blot. LC3-II acts as a link between nascent autophagosomes and cargo being directed into these structures. An autophagy enhancer will increase LC3-II in the presence of bafilomycin, whereas a compound that inhibits autophagy completion will not do so. Thus, the L3A-I to LC3A-II conversion in the presence of bafilomycin-A1 constitutes a valid measure of autophagy.
For the assays, rat glioma cells RG2 (ATCC® CRL-2433™; RG2 cells) were cultured. […] The cells were then incubated for an additional 4 h. At termination, the cell culture medium was removed, cells were washed with PBS and lysed on ice in Pierce RIPA buffer containing protease and phosphatase inhibitors.
Western Blotting: The proteins were electrophoresed and wet-blotted to polyvinylidine difluoride membranes, blocked overnight in 4% bovine serum albumin, and developed using antibodies obtained from Cell Signaling Technology (L3A: cat #. 4599; ULK1: cat #. 8054, ULK1(p757): cat #. 6880).
RG2 glioma cells were treated without drug (first column in FIG. 8A) or 4 h with 50 nM bafilomycin-A1 (BAF), the indicated concentration of LK, or the phosphonate analog 2-isopropyl-LK-3-phosphonate. The western blot results are shown in FIG. 8A, where the lower band corresponds to LC3-II. An increase in the intensity of this band in the presence of bafilomycin-A1 indicates increased autophagic flux. […] Similar results are shown in FIG. 9 with respect to the LK-P compound 2-butyl-lanthionine-phosphonate (also referred to as 2-n-butyl-lanthionine-phosphonate or 2-n-butyl-LK-P).
RG2 glioma cells (American Tissue Type Collection, ATTC, Rockville MD USA) were treated for 4 h with 50 nM bafilomycin-A1 (previously dissolved to 1000× final concentration in dimethylsulfoxide). Thirty minutes after addition of bafilomycin, cells were treated with test agents at 100× final concentration. Cells were lysed in RIPA buffer containing protease and phosphatase inhibitors. Protein concentration was assayed and normalized to constant values (typically 5-7 mg/mL). Proteins were electrophoresed across 4-20% polyacrylamide gels and wet blotted onto polyvinylidine difluoride (PVDF) membranes. Proteins were blotted with commercially available antibodies against LC3.

PINK1^B9 flies = experiment: Fly sleep behavior; format: in vivo, Drosophila melanogaster
Protocol: 2-n-hexyl-LKE-P was dissolved in DMSO and supplemented into a warm solution of minimal media (5% sucrose, 2% agarose and water, 60° C.) to a final concentration of 10, 100 and 1000 μM. Freshly eclosed adult flies were transferred to minimal media containing the drug for one day followed by the experiments. Flies were transferred individually, under CO2 anesthesia, into 5 mm×65 mm (outside diameter×length) polycarbonate recording tubes with food on one end and yarn plugs on the other. Sleep parameters were continuously evaluated using the TriKinetics Drosophila activity monitoring system. Sleep is defined as 5 min or more of continuous inactivity, the minimum amount of time to qualify as a single sleep bout. Zeitgeber time (ZT) 0 is defined as the time of lights on, and ZT12 is defined as the time of lights off. Mobility (activity) was also monitored and data tabulated based on the number of beam counts, and diurnal variations were calculated. The sleep and mobility data were collected and analyzed.

[1] = system: d42-Gal4;UAS-nSyb-GFPxUAS-C9orf72polyGR36 flies; experiment: Fly sleep behavior, C9orf72 ALS model; format: in vivo, Drosophila melanogaster
Protocol: The base for the food was a cornmeal agar product, Nutri-fly BF (Genesee Scientific, Box of 10, 1-liter bags, Cat #66-112). In a 2 L beaker, 1 L of ultrapure water was heated to […], with the stir bar speed set to 600. To the beaker, one bag of Nutri-fly BF was added in small portions. The beaker was covered to maintain temperature (monitored with an inserted thermometer) while stirring as rapidly as possible until the temperature reached 97° C. The food was stirred at this temperature for 10 minutes using a wooden spoon/spatula, then allowed to cool to approximately 65° C. with continuous stirring (magnetic bar). At 65° C., while maintaining constant stirring, 12 mL of Tegosept was added followed by 7 mL of propionic acid solution. To be used as fly maintenance food, the food was allowed to cool to 55° C. and 4 mL of the food was aliquoted (to a depth of approximately 1 inch) into individual vials with mity drosophila plugs (VWR #75813-162 and #10054-506). For use as a drug delivery vehicle, the food was allowed to cool to room temperature while covered with aluminum foil, then sealed with parafilm stored at 4° C. To prepare the food for drug delivery, the food was homogenized at room temperature with an immersion blender. To prepare the drug-infused-food, about half of the calculated food, accurately measured, was added to a 250 mL beaker, followed by the drug (no carrier solvent is used). The drug was then covered with the rest of the food and the contents of the beaker were thoroughly mixed with an overhead mixer (with shroud removed) until the drug was distributed homogeneously within the food. The food was then distributed in 4.00 g aliquots to the vials with plugs (described above). The food-containing vials were centrifuged in 50 mL tubes at an appropriate speed (approximately 1000 to 1400 g) to just force the “drug food” to the bottom of the feeding vial. The vials were closed with the cotton mity plug until use.
Test flies were transferred individually, under CO2 anesthesia, into 5 mm×65 mm (outside diameter×length) polycarbonate recording tubes with either minimal media or normal fly food on one end and yarn plugs on the other. Sleep parameters were continuously evaluated using the TriKinetics Drosophila activity monitoring system. Sleep is defined as 5 min or more of continuous inactivity, the minimum amount of time to qualify as a single sleep bout. Zeitgeber time (ZT) 0 is defined as the time of lights on and ZT12 is defined as the time of lights off. Mobility (activity) was also monitored and data tabulated based on the number of beam counts and diurnal variations were calculated. The sleep and mobility data were collected and analyzed.

## CCCCCCC1=C(P(=O)(O)O)N[C@H](C(=O)OCC)CS1 [2-n-hexyl-LKE-P]
RG2 glioma cells; RG2 cells, FIG. 32A
  concentration at which the compound is potent in stimulating autophagy: 0.1 µM
  potency relative to known results for LKE: approximately 10 fold
RG2 glioma cells; RG2 glioma cells, 4 h, 50 nM bafilomycin-A1, western blot
  autophagic flux / autophagy stimulation (LC3-II band in the presence of bafilomycin-A1): stimulate autophagy in RG2 cells
PINK1^B9 flies; Day 1 or Day 8
  sleep of treated wild-type flies versus vehicle-treated wild-type flies: No differences were observed
PINK1^B9 flies; day 1, 1000 μM
  daytime sleep of PINK1^B9 flies: did not change the sleeping pattern and the daytime sleeping time; also recorded: did not show any changes
PINK1^B9 flies; day 8 (one week), 1000 μM
  daytime sleep of PINK1^B9 flies: decreased the daytime sleeping time; also recorded: reversal of excessive daytime sleep
[1]; d42-Gal4: UAS-nSyb-GFPxUAS-W1118 control flies
  daytime sleeping time of control flies: did not change the daytime sleeping time of control flies
[1]; polyGR36 in motor neurons
  number of sleep bouts during the day: decreased the number of sleep bouts during the day
  total sleep time: increased total sleep time
[1]; polyGR36 in motor neurons, drug in food throughout development
  daytime sleepiness / daytime sleeping time of mutant flies: decreased the daytime sleeping time of mutant flies; also recorded: rescued the daytime sleepiness
